assay: Ability to inhibit blood platelet aggregation of human platelet-rich plasma induced by TP-receptor agonist U 46619

For `O=C(O)CCC/C=C1\C[C@H]2CC[C@H](C=NNC(=O)Nc3cccc(Cl)c3)[C@H]2C1`, which IC50 is on record?
Its IC50 is 6500 nM.

With `O=C(O)COC/C=C1\C[C@H]2C[C@@H](O)[C@H](C=NNC(=O)Nc3cccc(Cl)c3)[C@H]2C1` as the molecule, how does the IC50 read?
Its IC50 is 1600 nM.

With `O=C(O)CC/C=C1\C[C@H]2C[C@@H](O)[C@H](C=NNC(=O)Nc3cccc(Cl)c3)[C@H]2C1` as the molecule, how does the IC50 read?
Its IC50 is 5200 nM.

For `O=C(O)COC/C=C1/C[C@H]2C[C@@H](O)[C@H](C=NNC(=O)Nc3ccccc3)[C@H]2C1`, which IC50 is on record?
Its IC50 is 1400 nM.

Which IC50 does the source give for `O=C(O)CC/C=C1\CC2CC(O)C([CH+][N-]NC(=O)Nc3ccc([N+](=O)[O-])cc3)C2C1` (stereo unspecified) here?
Its IC50 is 520 nM.

With `O=C(O)CCC/C=C1\C[C@H]2CC[C@H](C=NNC(=O)Nc3ccccc3)[C@H]2C1` as the molecule, how does the IC50 read?
The IC50 was 12000 nM.

Which IC50 does the source give for `O=C(O)CCC/C=C1/CC2CC(O)C([CH+][N-]NC(=O)Nc3ccc([N+](=O)[O-])cc3)C2C1` (stereo unspecified) here?
Its IC50 is 50 nM.

For `O=C(O)CCC/C=C1/C[C@H]2C[C@@H](O)[C@H](C=NNC(=O)Nc3ccccc3)[C@H]2C1`, which IC50 is on record?
Its IC50 is 100 nM.

With `O=C(O)CCC/C=C1\C[C@H]2C[C@@H](O)[C@H](C=NNC(=O)Nc3ccc(Cl)c(Cl)c3)[C@H]2C1` as the molecule, how does the IC50 read?
Its IC50 is 200 nM.

With `O=C(O)CC/C=C1\C[C@H]2C[C@@H](O)[C@H](C=NNC(=O)Nc3ccccc3)[C@H]2C1` as the molecule, how does the IC50 read?
The IC50 was 26000 nM.

For `O=C(O)CCC/C=C1\C[C@H]2CC[C@H](C=NNC(=O)Nc3ccc(Cl)c(Cl)c3)[C@H]2C1`, which IC50 is on record?
The IC50 was 9000 nM.

With `O=C(O)CCC/C=C1/C[C@H]2CC[C@H](C=NNC(=O)Nc3ccc(Cl)c(Cl)c3)[C@H]2C1` as the molecule, how does the IC50 read?
The IC50 was 1800 nM.

For `O=C(O)CCC/C=C1/CC2CCC([CH+][N-]NC(=O)Nc3ccc([N+](=O)[O-])cc3)C2C1` (stereo unspecified), which IC50 is on record?
Its IC50 is 580 nM.

With `O=C(O)COC/C=C1\C[C@H]2C[C@@H](O)[C@H](C=NNC(=O)Nc3ccccc3)[C@H]2C1` as the molecule, how does the IC50 read?
The IC50 was 6000 nM.

With `O=C(O)CCC/C=C1/C[C@H]2CC[C@H](C=NNC(=O)Nc3ccccc3)[C@H]2C1` as the molecule, how does the IC50 read?
The IC50 was 2300 nM.

With `O=C(O)CCC/C=C1\C[C@H]2C[C@@H](O)[C@H](C=NNC(=O)Nc3cccc(Cl)c3)[C@H]2C1` as the molecule, how does the IC50 read?
Its IC50 is 130 nM.
